US5593656A, “Metal-binding targeted polypeptide constructs” (Cytogen Corporation, priority 1995, dated 1997)

What was measured:
[1] = test system: HT-29 colon carcinoma xenograft tumors; settings: Tc-99m labeled, i.v., 22 hours after injection
Experimental: Biodistribution and imaging studies were conducted using female Nu/Nu HT-29 xenograft tumor-bearing mice, a model for colon carcinoma. […] Two μg of the test compounds were labeled with 100 μCi of Tc-99m and each was injected into 10 Nu/Nu mice bearing HT-29 tumors on the flank. The organs of interest were removed from half the mice at 3 hr, and the organs of the remaining mice were removed at 22 h. Each set of organs were counted for gamma radiation.
Twenty μg of each construct was dissolved in 20 mM sodium acetate, pH 4.5, at a minimum concentration of 30 μg/mn. The pH was checked and adjusted as necessary. A 50 mCi vial of ^99m TcO4 Na (Syncor) was added to a vial of Glucoscan® (Dupont) in a leaded glass shield using a shielded tuberculin syringe. 100 μL of the resulting solution was dose calibrated, and the volume required for 20 doses of 100 μCi was calculated (ca. 40-45 μL). This amount was divided into two equal parts and added to the two solutions of construct in microfuge tubes and incubated for 1 h at 37° C. Percent chelation was checked by chromatography on ITLC developed with 0.9% saline, and analyzed by autoradiography counter. The two solutions were diluted to 2.2 mL each with 0.9% saline. The diluted solutions werethen divided into numbered tuberculin syringes (200 μL each). […]
Dissected tissues were weighed, and their content of Tc-99m was determined by gamma counting.

[2] = molecular target: T1, I-125-GRP binding to NIH-3T3 cells (Mus musculus, UniProt P21729); assay: In vitro receptor binding assay: inhibition of binding of I-125-GRP to NIH-3T3 cells; set-up: species or system Murine; settings: for IC50: […] 125I-GRP, 30 min RT, read-out: IC50, inhibition of binding of labeled GRP to NIH-3T3 cells; for Binding of competing ligand relative to control ligand Neuromedin C: competition with 125I-GRP
T1 construct: Murine NIH-3T3 fibroblast cells (ATCC No. CCL92) were released from flasks; endogenous in cells; host or cells: NIH-3T3 murine fibroblasts (ATCC No. CCL92), whole cells
T1 sequence (P21729 whole entry): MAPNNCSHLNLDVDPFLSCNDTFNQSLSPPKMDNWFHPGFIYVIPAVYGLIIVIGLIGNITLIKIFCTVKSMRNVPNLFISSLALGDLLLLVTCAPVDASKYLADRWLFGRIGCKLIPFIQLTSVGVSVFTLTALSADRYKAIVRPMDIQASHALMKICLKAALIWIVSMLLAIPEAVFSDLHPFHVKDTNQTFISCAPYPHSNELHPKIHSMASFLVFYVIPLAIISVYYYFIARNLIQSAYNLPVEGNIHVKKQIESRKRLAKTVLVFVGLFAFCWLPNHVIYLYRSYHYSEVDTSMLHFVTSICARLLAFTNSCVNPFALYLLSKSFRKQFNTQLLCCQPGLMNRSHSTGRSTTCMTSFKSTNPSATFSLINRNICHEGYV
Experimental: Murine NIH-3T3 fibroblast cells (ATCC No. CCL92) were released from flasks with EDTA harvest buffer, consisting of 0.6 mm EDTA, 25 mm PBS (8 g NaCl, 0.2 g KCl, 1.44 g Na2 PO4, 0.2 g KH2 PO4 per liter), pH 7.4, 37° C., by incubation for 15 min.
The cells were washed twice with Assay Buffer (50 mM Tris-HCl, 100 mM NaCl, 0.1% BSA, 0.1 mg/mL bacitracin, 0.05 mg/mL aprotinin, 1 mM PMSF), pH 7.4, 4° C. and resuspended at a density of 3×10^6 cells/mL.
A 0.5 mL Eppendorf tube was prepared for each assay point by incubating the tube overnight with a blocking solution of 1% BSA, 50 mM Tris. HCl, 100 mM NaCl, pH 7.4. The blocking solution was removed.
Each tube was charged with 4×10^4 cells. […] Three control tubes with no cells or competitor were prepared for measurement of total counts added.
The samples were incubated for 30 min at RT. The contents of each tube were transferred into the wells of a 96-well filter bottom plate (Millipore Multiscreen, Arlington Heights, Mass.) and filtered under moderate vacuum (water aspirator). Each filter was washed three times by filling each well with ice cold PBS, Ph 7.4, 0.1% BSA. The plate was allowed to dry. Dried filters were placed into gamma-counter tubes (12×75 mm glass). The radioactivity on each filter and in the control tubes was counted using a LKB gamma counter. The bound/total added for each assay tube was calculated.

Substance | Localization to HT-29 tumors [1] | IC50 [2] | Binding of competing ligand relative to control ligand Neuromedin C [2]
Benzoic acid bis-thiosemicarbazide derived from N-acetyl-Neuromedin C-hydrazide [Compound 6] | evident | 43.3 nM | within an order of magnitude of the control ligand Neuromedin C
Benzoic acid bis-thiourea derived from Neuromedin-C [Compound 3] | evident | 10.6 nM | within an order of magnitude of the control ligand Neuromedin C
